Measured values taken from patent US6630501B1, “Phosphinic pseudo-peptides that may be used as matrix zinc metalloprotease inhibitors” (Commissariat a l'energie Atomique, priority 1999, dated 2003).
pKi: −log10 of the molar value.

Columns and labels:
[1] = target: T1, MMP-11 (stromelysin-3, mST3) (Mus musculus, UniProt Q02853); test: Ki determination with fluorogenic synthetic substrates, recombinant MMP-11; type: biochemical, murine; conditions: Tris/50 mM HCl buffer, pH 6.8, 10 mM CaCl2, 25° C.; read-out: affinity constant Ki, MMP-11 mST3
T1 construct: made in house; host or cells: E. coli
T1 sequence (Q02853 102-492): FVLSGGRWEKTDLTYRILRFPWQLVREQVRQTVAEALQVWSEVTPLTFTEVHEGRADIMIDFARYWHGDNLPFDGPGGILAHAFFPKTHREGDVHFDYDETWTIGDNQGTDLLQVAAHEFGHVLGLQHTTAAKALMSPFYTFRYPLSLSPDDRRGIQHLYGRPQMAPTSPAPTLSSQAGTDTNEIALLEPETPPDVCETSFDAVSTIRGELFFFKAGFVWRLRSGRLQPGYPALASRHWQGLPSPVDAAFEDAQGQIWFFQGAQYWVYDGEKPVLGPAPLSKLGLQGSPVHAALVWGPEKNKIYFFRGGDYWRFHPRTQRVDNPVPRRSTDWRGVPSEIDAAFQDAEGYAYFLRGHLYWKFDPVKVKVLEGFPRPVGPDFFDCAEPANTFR
Method: (§1) The MMPs used were produced in recombinant form, in an E. coli expression system, and then purified using different types of chromatographies. Apart from stromelysin-3 (MMP-11), the MMPs produces correspond to human sequences. The Stromelysin-3 used in this study corresponds to the murine form.
(§2) The activity of each MMP was determined using two fluorogenic synthetic substrates. The cutoff of said substrates, which generates a fluorescent signal proportional to the quantity of split substrate, enables a precise determination of the kinetic parameters. The affinity constants Ki were calculated using the equation of Horowitz et al, Proc. Natl. Acad. Sci. USA, 1987, 84, p. 6654-6658 [14], accounting for the dependency of the percentage of inhibition measured experimentally according to the concentration of inhibitor, as a function of the enzyme and substrate concentration.
(§3) The experiments for conducted in a Tris/50 mM HCl buffer, pH 6.8, 10 mM CaCl2, 25° C.

[2] = target: T2, MMP-2 (Gel-A) (Homo sapiens, UniProt P08253); test: Ki determination with fluorogenic synthetic substrates, recombinant MMP-2; type: biochemical; conditions: Tris/50 mM HCl buffer, pH 6.8, 10 mM CaCl2, 25° C.; read-out: affinity constant Ki, MMP-2 Gel-A
T2 construct: made in house; host or cells: E. coli
T2 sequence (P08253 110-660): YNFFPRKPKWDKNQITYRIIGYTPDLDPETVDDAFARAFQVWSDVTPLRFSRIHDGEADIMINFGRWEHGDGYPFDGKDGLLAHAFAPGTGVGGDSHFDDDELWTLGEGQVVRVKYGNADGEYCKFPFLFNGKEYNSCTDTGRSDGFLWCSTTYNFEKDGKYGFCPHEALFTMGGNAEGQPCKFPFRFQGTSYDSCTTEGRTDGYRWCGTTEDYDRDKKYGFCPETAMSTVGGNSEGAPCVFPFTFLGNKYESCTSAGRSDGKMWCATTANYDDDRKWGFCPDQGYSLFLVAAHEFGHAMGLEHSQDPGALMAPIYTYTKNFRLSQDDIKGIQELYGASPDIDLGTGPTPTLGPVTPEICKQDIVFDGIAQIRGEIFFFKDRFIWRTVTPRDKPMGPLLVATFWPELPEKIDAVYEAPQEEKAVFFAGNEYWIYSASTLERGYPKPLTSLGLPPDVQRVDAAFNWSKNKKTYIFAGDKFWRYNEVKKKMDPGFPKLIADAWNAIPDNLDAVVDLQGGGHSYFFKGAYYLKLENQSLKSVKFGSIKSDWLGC
Method: as §1, §2, §3

[3] = target: T3, MMP-9 (Gel-B) (Homo sapiens, UniProt P14780); test: Ki determination with fluorogenic synthetic substrates, recombinant MMP-9; type: biochemical; conditions: Tris/50 mM HCl buffer, pH 6.8, 10 mM CaCl2, 25° C.; read-out: affinity constant Ki, MMP-9 Gel-B
T3 construct: made in house; host or cells: E. coli
Method: as §1, §2, §3

[4] = target: T4, MMP-14 (MT1-MMP) (Homo sapiens, UniProt P50281); test: Ki determination with fluorogenic synthetic substrates, recombinant MMP-14; type: biochemical; conditions: Tris/50 mM HCl buffer, pH 6.8, 10 mM CaCl2, 25° C.; read-out: affinity constant Ki, MMP-14 MT1-MMP
T4 construct: made in house; host or cells: E. coli
Method: as §1, §2, §3

[5] = target: T5, MMP-1 (HFC) (Homo sapiens, UniProt P03956); test: Ki determination with fluorogenic synthetic substrates, recombinant MMP-1; type: biochemical; conditions: @ 2 mM inhibitor; listed as R I
T5 construct: made in house; host or cells: E. coli
T5 sequence (P03956 100-469): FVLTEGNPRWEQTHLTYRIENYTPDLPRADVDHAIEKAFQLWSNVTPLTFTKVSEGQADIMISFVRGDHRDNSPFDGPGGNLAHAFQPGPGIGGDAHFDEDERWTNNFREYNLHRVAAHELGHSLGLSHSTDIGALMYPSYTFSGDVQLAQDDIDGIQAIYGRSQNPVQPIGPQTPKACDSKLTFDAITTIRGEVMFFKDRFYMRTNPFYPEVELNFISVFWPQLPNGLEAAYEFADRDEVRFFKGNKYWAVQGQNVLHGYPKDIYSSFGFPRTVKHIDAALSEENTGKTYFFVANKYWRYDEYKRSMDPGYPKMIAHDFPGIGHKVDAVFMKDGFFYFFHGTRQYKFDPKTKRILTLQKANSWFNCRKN
Method: as §1, §2, §3

[6] = target: T6, MMP-7 (Matrilysin) (Homo sapiens, UniProt P09237); test: Ki determination with fluorogenic synthetic substrates, recombinant MMP-7; type: biochemical; conditions: @ 20 mM inhibitor; listed as R I
T6 construct: made in house; host or cells: E. coli
T6 sequence (P09237 95-267): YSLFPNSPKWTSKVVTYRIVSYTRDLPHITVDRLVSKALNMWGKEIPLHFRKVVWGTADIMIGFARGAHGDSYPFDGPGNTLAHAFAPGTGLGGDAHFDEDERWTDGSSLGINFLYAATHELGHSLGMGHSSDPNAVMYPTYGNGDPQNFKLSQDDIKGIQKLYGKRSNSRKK
Method: as §1, §2, §3

[7] = target: T7, MMP-8 (HNC) (Homo sapiens, UniProt P22894); test: Ki determination with fluorogenic synthetic substrates, recombinant MMP-8; type: biochemical; conditions: Tris/50 mM HCl buffer, pH 6.8, 10 mM CaCl2, 25° C.; read-out: affinity constant Ki, MMP-8 HNC
T7 construct: made in house; host or cells: E. coli
Method: as §1, §2, §3

[8] = system: malignant murine C26 cells; test: Tumorigenesis model: subcutaneous graft of malignant murine C26 cells in syngenic mice; type: in vivo; conditions: 150 μg of inhibitor/mouse/day, intraperitoneal
Method: The tumorigenesis model used to test the effect of said RXPO3 inhibitor in vivo consists of a subcutaneous graft of malignant murine C26 cells in syngenic mice (with a genetic background similar to that of the injected cells).
The C26 cells established from Balb c mouse colic cancer (Corbett et al., 1975, Cancer Res, 35:2434-2439 [15] are cultured until subconfluence. After trypsinisation, the cells are centrifuged at 1000 g for 10 minutes. The sediment is washed and resuspended in 1×PBS. A […] volume, containing 5×10^4 C26 cells, is injected subcutaneously at 2 sites on the back of 8 to 9-week old mice. The inhibitor is solubilised in 1× PBS and […] of inhibitor in a […] volume is administered by the intraperitoneal route. The treatment starts on the day of the injection of the C26 cells and continues at a rate of one injection a day for 25 days. The tumoral volumes are measured every day.
Three identical and independent tumorigenesis experiments were conducted, according to the protocol given above. The results obtained were similar. One of them is reported below.
The experiment related to 12 animals, 6 receiving a treatment (150 μg of inhibitor/mouse/day) and 6 used as controlled animals (150 μl 1×PBS).

T3 sequence (P14780 94-707): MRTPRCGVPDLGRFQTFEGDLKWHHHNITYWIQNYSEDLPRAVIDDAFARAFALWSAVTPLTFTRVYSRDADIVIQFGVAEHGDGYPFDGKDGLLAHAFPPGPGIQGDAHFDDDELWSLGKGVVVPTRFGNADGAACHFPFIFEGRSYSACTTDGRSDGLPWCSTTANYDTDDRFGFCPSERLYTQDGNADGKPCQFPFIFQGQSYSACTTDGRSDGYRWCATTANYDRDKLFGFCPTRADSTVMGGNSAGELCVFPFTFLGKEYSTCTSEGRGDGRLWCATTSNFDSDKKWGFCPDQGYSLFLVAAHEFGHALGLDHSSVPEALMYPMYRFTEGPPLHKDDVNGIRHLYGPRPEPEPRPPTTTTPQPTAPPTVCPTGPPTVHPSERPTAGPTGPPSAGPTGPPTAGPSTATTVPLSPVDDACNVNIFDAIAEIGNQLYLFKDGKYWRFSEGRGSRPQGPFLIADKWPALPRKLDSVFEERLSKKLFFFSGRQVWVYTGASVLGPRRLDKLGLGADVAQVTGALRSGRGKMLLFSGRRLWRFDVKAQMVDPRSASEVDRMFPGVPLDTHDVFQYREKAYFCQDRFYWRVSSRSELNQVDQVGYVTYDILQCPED
T7 sequence (P22894 101-467): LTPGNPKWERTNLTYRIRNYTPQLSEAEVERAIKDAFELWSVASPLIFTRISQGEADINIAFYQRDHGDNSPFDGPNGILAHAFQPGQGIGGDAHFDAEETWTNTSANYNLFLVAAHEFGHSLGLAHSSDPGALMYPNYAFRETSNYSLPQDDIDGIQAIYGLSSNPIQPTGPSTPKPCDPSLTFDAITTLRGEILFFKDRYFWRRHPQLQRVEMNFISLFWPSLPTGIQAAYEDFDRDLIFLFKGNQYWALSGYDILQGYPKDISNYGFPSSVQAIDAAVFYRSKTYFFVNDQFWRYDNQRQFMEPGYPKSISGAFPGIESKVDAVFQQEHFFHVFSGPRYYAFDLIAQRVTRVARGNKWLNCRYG

- pKi [1]: 8.22
- pKi [2]: 7.27
- pKi [3]: 7.38
- pKi [4]: 7.05
- percentage of inhibition, MMP-1 [5]: 18% @ 2 mM
- percentage of inhibition, MMP-7 [6]: 44% @ 20 mM
- pKi [7]: 7.80
SMILES: NC(=O)C(Cc1c[nH]c2ccccc12)NC(=O)C(CCCc1ccccc1)CP(=O)(O)C(Cc1ccccc1)NC(=O)OCc1ccccc1 (single isomer, unassigned) [Compound 15 R I, ZPheΨ(PO2CpH2)pPheTrpNH2]
- mean and median tumour volumes in treated versus control animals ([8]; Days 10 to 25): always lower
- difference in tumour size, treated versus control animals ([8]; day D15 to day D20, one injection a day for 25 days): ~50%
